Data as given in patent US20230235378A1, “LZHEIMER'S DISEASE-SPECIFIC ALTERATIONS OF PROTEIN KINASE C EPSILON (PKC-EPSILON PROTEIN LEVELS” (WEST VIRGINIA UNIVERSITY BOARD OF GOVERNORS ON BEHALF OF …, priority 2010, published 2023).
Values belong to the compound of their own block, whether it stands above or below them.

Key:
purified PKC = molecular target: T1, purified PKC (Homo sapiens, UniProt Q02156); assay: PKC isozyme specificity: purified PKC preincubated with compound, activity measured radiometrically; type: biochemical; conditions: for concentration needed to activate PKC, relative to BR-101 (DCP-LA): compared with BR-101 (DCP-LA); for activation of purified PKC: used as methyl esters
T1 construct: purchased Calbiochem
T1 sequence (Q02156 1-737): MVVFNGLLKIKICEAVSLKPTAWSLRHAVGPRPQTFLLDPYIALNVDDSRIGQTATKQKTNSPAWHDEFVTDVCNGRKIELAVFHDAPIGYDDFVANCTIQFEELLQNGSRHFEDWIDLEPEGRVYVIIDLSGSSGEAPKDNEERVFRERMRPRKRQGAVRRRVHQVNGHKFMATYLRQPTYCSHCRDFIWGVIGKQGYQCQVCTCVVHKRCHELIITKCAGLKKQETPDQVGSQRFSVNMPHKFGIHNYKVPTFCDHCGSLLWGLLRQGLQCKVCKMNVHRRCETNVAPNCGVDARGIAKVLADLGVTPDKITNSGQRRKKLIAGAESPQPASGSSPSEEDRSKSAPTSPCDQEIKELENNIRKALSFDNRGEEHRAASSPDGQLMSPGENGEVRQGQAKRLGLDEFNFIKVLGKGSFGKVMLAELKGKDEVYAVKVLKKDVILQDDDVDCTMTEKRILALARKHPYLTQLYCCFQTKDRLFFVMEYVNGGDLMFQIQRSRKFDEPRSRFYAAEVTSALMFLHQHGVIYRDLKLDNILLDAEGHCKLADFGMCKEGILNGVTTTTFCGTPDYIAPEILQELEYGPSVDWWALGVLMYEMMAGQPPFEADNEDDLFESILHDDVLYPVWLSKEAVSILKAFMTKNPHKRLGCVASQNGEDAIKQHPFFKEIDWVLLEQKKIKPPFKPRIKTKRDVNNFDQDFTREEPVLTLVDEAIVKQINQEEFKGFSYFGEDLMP
Description: (§1) Protein Kinase C Assay. Rat hippocampal cells were cultured and scraped in 0.2 ml homogenization buffer (20 mM Tris-HCl, pH 7.4, 50 mM NaF, 1 μg/ml leupeptin, and 0.1 mM PMSF) and homogenized by sonication in a Marsonix micro-probe sonicator (5 sec, 10 W). To measure PKC, 10 μl of cell homogenate or purified PKC isozyme (purchased from Calbiochem) was incubated for 15 min at 37° C. in the presence of 10 μM histones, 4.89 mM CaCl2, 1.2 μg/μl phosphatidyl-L-serine, 0.18 μg/μl 1,2-dioctanoyl-sn-glycerol, 10 mM MgCl2, 20 mM HEPES (pH 7.4), 0.8 mM EDTA, 4 mM EGTA, 4% glycerol, 8 μg/ml aprotinin, 8 μg/ml leupeptin, and 2 mM benzamidine. 0.5 μCi [γ-32P]ATP was added and 32P-phosphoprotein formation was measured by adsorption onto phosphocellulose as described previously. Nelson and Alkon, J. Neurochemistry. 1995; 65: 2350-57. For measurements of activation by BR-101 (DCP-LA) and similar compounds, PKC activity was measured in the absence of diacylglycerol and phosphatidylserine, as described by Kanno et al., and PKC δ, ε, η, and were measured in the absence of added EGTA and CaCl2, as described by Kanno et al., J. Lipid Res. 2006; 47: 1146-50. Low concentrations of Ca2+ are used because high Ca2+ interacts with the PKC phosphatidylserine binding site and prevents activation. For measurements of bryostatin activation, 1,2-diacylglycerol was omitted unless otherwise stated.
To determine their PKC isozyme specificity, the new compounds were preincubated with purified PKC for five minutes and the PKC activity was measured radiometrically.

PKC [1] = assay: PKC activity in cultured rat hippocampal H19-7/IGF-IR cells; type: cell-based; conditions: 8 h; data not shown
Description: Cell Culture. Rat hippocampal H19-7/IGF-IR cells (ATCC, Manassas, Va.) were plated onto poly-L-lysine coated plates and grown at 35° C. in DMEM/10% FCS for several days until about 50% coverage was obtained. The cells were then induced to differentiate into a neuronal phenotype by replacing the medium with 5 ml N2 medium containing 10 ng/ml basic fibroblast growth factor at 39° C. and grown in T-75 flasks at 37° C. Human SH-SY5Y neuroblastoma cells (ATCC) were cultured in 45% F 12K/45% MEM/10% FCS. Mouse N2A neuroblastoma cells were cultured in DMEM/10% FCS without glutamine. Rat hippocampal neurons from 18-day-old embryonic
as §1
PKC activators that bind to the diacylglycerol binding site, including bryostatin, gnidimacrin, and phorbol esters, produce a transient activation of PKC activity, followed by a prolonged downregulation. Nelson et al., Trends in Biochem. Sci. 2009; 34: 136-45. This was confirmed in cultured rat hippocampal cells. Incubation of rat 1119-7/IGF-IR cells with (0.04 nM and 0.2 nM) bryostatin produced a 2-fold activation that lasted 30 min, followed by a 20% downregulation that returned to baseline by 24 h (data not shown). […] This sustained activation was only observed in primary neurons.

PKC [2] = conditions: read-out: EC50 (affinity for PKC); cited from earlier work
Aß = conditions: 1 μM, 8 h, cultured COS cells; cited from earlier work
PKC-ε = PKC-ε level in skin fibroblasts treated with oligomeric Aß1-42 (western blot); type: cell-based, human
Description: Immunoblot Analysis: Protein lysates (20 μg of protein each) were boiled in 2× Laemmli buffer for 10 min and separated using a 4-20% gradient Tris-Glycine gels. Separated proteins were transferred to nitrocellulose membrane and the membrane was blocked in BSA at room temperature (RT) for 15 min and incubated with 1:2000 dilution anti-PKC-ε rabbit polyclonal antibody (Santa Cruz Biotechnology, Santa Cruz, Calif.; Cat No: sc-214), and 1:5000 dilution anti-ß-tubulin, class III rabbit monoclonal antibody (Millipore Corporation, Billerica Mass., Cat No: 04-1049) for 1 hr at RT. After the incubation, the membrane fractions were washed 3× with standard western blot washing buffer and further incubated with alkaline phosphatase conjugated secondary antibody (Jackson Immunoresearch Laboratories, USA) at 1:10000 dilution for 45 min. The membrane fractions were finally washed 3× with standard western blot washing buffer and developed using the 1-step NBT-BCIP substrate (Thermo Scientific, Rockford, Ill.). Signal intensities of the images were recorded in the ImageQuant RT-ECL (GE Life Sciences, Piscataway, N.J.) and densitometric quantification was performed using the IMAL software (Blanchette Rockefeller Neurosciences Institute, Morgantown, W. Va.). Intensities quantified in this way, for PKC-ε were normalized against ß-tubulin for each lane.
Preparation of Soluble Oligomeric Aß: Oligomeric Aß was prepared following the method described by Noguchi et al., (2009). Aß generated by this method was reported to be highly neurotoxic, 10-15 nm spherical Aß assemblies termed as amylospheroids (ASPDs). […]
Treatment of skin fibroblasts with oligomeric Aß1-42: Skin fibroblasts both from AD and AC cases were cultured for 7 days to 100% confluence. […] The resulting band intensities for PKC-ε were quantified using ImageQuant RT-ECL (GE Life Sciences, USA) and densitometric analysis was performed using the IMAL software (Blanchette Rockefeller Neurosciences Institute, Morgantown, W. Va.).

Compound: CCCCCC1OC1C/C=C\CCCCCCCC(=O)OC (stereo in doubt) [BR-117, vernolic acid methyl ester]
effect on PKC (purified PKC): little or no effect

Compound: CCCCCC1CC1CC1CC1CC1CC1CC1CC1CCCC(=O)OC (stereo not drawn) [BR-115, methyl 4-(2-((2-((2-((pentylcyclopropyl)methyl)cyclopropyl)methyl)cyclopropyl)methyl)cyclopropyl)butanoate methyl ester]
concentration needed to activate PKC, relative to BR-101 (DCP-LA) (purified PKC): approx. 100 times lower
activation of purified PKC (purified PKC): activated purified PKC to a similar extent

Compound: CCCCCCCCCCCCCC(=O)O[C@@H]1[C@@H](C)[C@@]2(O)[C@@H](C=C(CO)C[C@]3(O)C(=O)C(C)=C[C@@H]23)[C@@H]2C(C)(C)[C@]12OC(C)=O [PMA, phorbol 12-myristate 13-acetate]
downregulation of PKC activity (PKC [1]): strongly downregulated

Compound: CCCC(=O)O[C@@H]1[C@@H](C)[C@@]2(O)[C@@H](C=C(CO)C[C@]3(O)C(=O)C(C)=C[C@@H]23)[C@@H]2C(C)(C)[C@]12OC(=O)CCC [PdBu, Phorbol-12,13-dibutyrate]
change in Aß (Aß): increase in Aß

Compound: Linolenyl alcohol cyclpropanated [BR-104]
effect on PKC (purified PKC): little or no effect

Compound: Soluble Aß oligomer: soluble >100 kDa oligomers (amylospheroids) prepared from synthetic Aß1-42 by the method of Noguchi et al.
PKC-ε in age-matched control (AC) skin fibroblasts (PKC-ε; 500 nM, 24 hrs, five AC cases): decreases
PKC-ε in AD skin fibroblasts (PKC-ε; 500 nM, 24 hrs, five AD cases): did not show decrease in expression
AC-AD ratio of normalized PKC-ε in treated cells (PKC-ε; untreated cells 1.4): ~1

Second part, led by results:

concentration needed to activate PKC, relative to BR-101 (DCP-LA) (purified PKC): approx. 100 times lower
Compound: CCC1CC1CC1CC1CC1CC1CC1CC1CC1CC1CCCC(=O)OC (stereo not drawn) [BR-114]
activation of purified PKC (purified PKC): activated purified PKC to a similar extent

effect on PKC (purified PKC): little or no effect
Compound: Linoleic alcohol cyclopropanated [BR-105]

concentrations at which PKC was inhibited (purified PKC): above 1 μM
Compound: Vernolic acid cyclopropanated methyl ester [BR-109]

effect on PKC (purified PKC): little or no effect
Compound: epoxystearic acid [BR-116]
